Results on 29 molecules are retold here after patent US20230174538A1, “Tricyclic heterocycles” (Merck Patent GmbH, priority 2020, published 2023).

In general, IC50 refers to the concentration that inhibits the measured activity by half. Low values mean higher potency, high ones lower potency.

The test system of the experiment is YAP-TEAD interaction. The experiment is described as follows: SK-HEP-1 reporter assay (8xTEAD responsive elements driving NanoLuc luciferase). Format: cell-based. The note with it: Homo sapiens, SK-HEP1, SK-HEP-1 reporter assay. How it is done:
To identify inhibitors of YAP-TEAD interaction, 8×TEAD responsive elements driving the NanoLuc® luciferase gene were stably integrated into SK-HEP-1 cells (ECACC #: 91091816).
For the assay, cells were treated in duplicates with the test compounds in a 10-point dose, with the top concentration starting at 30 μM (final concentration in assay). After a 24 hour incubation at 37° C., 95% rH, and 5% CO2, a luciferase substrate/lysis reagent mix (NanoGlo™, Promega) was added to the cells, allowing the quantification of cellular luciferase activity.
Cell Media: The cells were cultured in the following media: MEM, +10% FBS, +1× GlutaMAX, +1 mM Sodium-Pyruvate, +100 μM Non-essential amino acids, +0.1 mg/ml Hygromycin. The media used for the assay was: MEM (w/o Phenol Red), +10% FBS, +1× GlutaMAX, +1 mM Sodium-Pyruvate, +100 μM Non-essential amino acids, +0.5% Pen/Strep
Reagents: The reagents used are listed below:
Cell culture: The cells were examined using an inverted microscope to check for health and cell density. To dissociate adherent cells, the monolayer of cells was washed once with pre-warmed PBS. After removing the PBS, 3 ml pre-warmed Accutase® was added to a F75 flask, dispersed evenly and the flask was allowed to sit in incubator for ˜4-5 minutes.
When a single cell suspension was obtained, 7 ml of prewarmed growth media was added and resuspended with the cells. The cell suspension was transferred to a sterile 15 ml conical centrifuge tube, and spun for 5 min at 300×g, RT. The supernatant was discarded and the pellet was resuspended in 10 ml of pre-warmed growth media.
The total cell count was determined, and 20 μl of the desired cell number was added to each well of a 384 well plate using a Multidrop Combi. The plates were then incubated for 24 hours at 37° C., 95% rH, and 5% CO2.
Compound treatment: 24 hours after seeding, the cells were treated with compounds.
A 1:333 dilution of compounds, diluted in DMSO, was made to get a final concentration of 0.3% DMSO per well. To transfer the compounds to the assay plate, 120 nl was shot from Labcyte low dead volume plates to the cell plates containing 20 μl media/well with the ECHO 555 liquid handling system.
After treatment, the cells were fed with 20 μl fresh pre-warmed assay media using a Multidrop combi.
The assay plates were then incubated for another 24 h at 37° C., 95% rH, and 5% CO2.
Luciferase readout: 24 h after treatment, the plates were taken out of the incubator and were allowed to equilibrate to RT. 30 μl of NanoGlo® reagent was added to the plates in the dark. Plates were shaken for 20 min on a Teleshake (˜1500 rpm) in the dark. The luminescence was then measured using an EnVision microplate reader. The IC50 values were generated using Genedata Screener®.
The molecule `Cn1cc2c3cc(C(=O)N4CCCC4C4CCCO4)ccc3n(-c3ccc(C(F)(F)F)cc3)c2n1` (centres unmarked) [Example B48, 1-{2-methyl-8-[4-(trifluoromethyl)phenyl]-2H,8H-pyrazolo[3,4-b]indole-5-carbonyl}-2-(oxolan-2-yl)pyrrolidine] gave an IC50 of 0.1 to 10 µM. The same measure for `Cc1cnn(CC(C)NC(=O)c2ccc3c(c2)c2cn(C)nc2n3-c2ccc(C(F)(F)F)cc2)c1` (centres unmarked) [Example B66, 2-methyl-N-[1-(4-methyl-1H-pyrazol-1-yl)propan-2-yl]-8-[4-(trifluoromethyl)phenyl]-2H,8H-pyrazolo[3,4-b]indole-5-carboxamide]: 0.1 to 10 µM. The same measure for `Cn1cc2c3cc(C(=O)NC4CN(c5ccncn5)C4)ccc3n(-c3ccc(C(F)(F)F)cc3)c2n1` [B104^]: more than 10 µM; for `Cc1n[nH]c(C)c1C(C)NC(=O)c1ccc2c(c1)c1cn(C)nc1n2-c1ccc(C(F)(F)F)cc1` (centres unmarked) [Example B21, N-[1-(3,5-dimethyl-1H-pyrazol-4-yl)ethyl]-2-methyl-8-[4-(trifluoromethyl)phenyl]-2H,8H-pyrazolo[3,4-b]indole-5-carboxamide]: 0.01 to 0.1 µM; for `CCn1nnc(C)c1CNC(=O)c1ccc2c(c1)c1cn(C)nc1n2-c1ccc(C(F)(F)F)cc1` [Example B96, N-[(1-ethyl-4-methyl-1H-1,2,3-triazol-5-yl)methyl]-2-methyl-8-[4-(trifluoromethyl)phenyl]-2H,8H-pyrazolo[3,4-b]indole-5-carboxamide]: 0.1 to 10 µM.

`Cc1ccnn1CC(C)CNC(=O)c1ccc2c(c1)c1cn(C)nc1n2-c1ccc(C(F)(F)F)cc1` (centres unmarked) [B106^] registered an IC50 of more than 10 µM. The same measure for `Cn1cc2c3cc(C(=O)NC4CC(O)C45CCOCC5)ccc3n(-c3ccc(C(F)(F)F)cc3)c2n1` (centres unmarked) [Example B16, N-{3-hydroxy-7-oxaspiro[3.5]nonan-1-yl}-2-methyl-8-[4-(trifluoromethyl)phenyl]-2H,8H-pyrazolo[3,4-b]indole-5-carboxamide]: 0.1 to 10 µM; for `CCC(NC(=O)c1ccc2c(c1)c1cn(C)nc1n2-c1ccc(C(F)(F)F)cc1)c1c[nH]nn1` (centres unmarked) [Example B3, 2-methyl-N-[1-(1H-1,2,3-triazol-4-yl)propyl]-8-[4-(trifluoromethyl)phenyl]-2H,8H-pyrazolo[3,4-b]indole-5-carboxamide]: 0.01 to 0.1 µM; for `COCc1ocnc1CNC(=O)c1ccc2c(c1)c1cn(C)nc1n2-c1ccc(C(F)(F)F)cc1` [Example B49, N-{[5-(methoxymethyl)-1,3-oxazol-4-yl]methyl}-2-methyl-8-[4-(trifluoromethyl)phenyl]-2H,8H-pyrazolo[3,4-b]indole-5-carboxamide]: 0.01 to 0.1 µM. The same measure for `Cn1cc2c3cc(C(=O)NCCn4ccc(C5CC5)n4)ccc3n(-c3ccc(C(F)(F)F)cc3)c2n1` [B107^]: 0.1 to 10 µM; for `Cn1cc2c3cc(C(=O)N4CC(c5ocnc5CO)C4)ccc3n(-c3ccc(C(F)(F)F)cc3)c2n1` [Example B30, [5-(1-{2-methyl-8-[4-(trifluoro-methyl)phenyl]-2H,8H-pyrazolo[3,4-b]indole-5-carbonyl}azetidin-3-yl)-1,3-oxazol-4-yl]methanol]: more than 10 µM; for `Cc1cc(CC(C)NC(=O)c2ccc3c(c2)c2cn(C)nc2n3-c2ccc(C(F)(F)F)cc2)n[nH]1` (centres unmarked) [B101^]: more than 10 µM. The same measure for `CN(C)c1noc(CCNC(=O)c2ccc3c(c2)c2cn(C)nc2n3-c2ccc(C(F)(F)F)cc2)n1` [B120^]: 0.1 to 10 µM. Consider `Cn1cc2c3cc(C(=O)NC4CCCN(CCF)C4)ccc3n(-c3ccc(C(F)(F)F)cc3)c2n1` (centres unmarked) [B143^], for which the IC50 was more than 10 µM. The same measure for `COCC(NC(=O)c1ccc2c(c1)c1cn(C)nc1n2-c1ccc(C(F)(F)F)cc1)c1ccc(C)o1` (centres unmarked) [Example B34, N-[2-methoxy-1-(5-methylfuran-2-yl)ethyl]-2-methyl-8-[4-(trifluoromethyl)phenyl]-2H,8H-pyrazolo[3,4-b]indole-5-carboxamide]: 0.01 to 0.1 µM.

In the case of `COCC1CCN(C(=O)c2ccc3c(c2)c2cn(C)nc2n3-c2ccc(C(F)(F)F)cc2)C1` (centres unmarked) [Example B51, 3-(methoxymethyl)-1-{2-methyl-8-[4-(trifluoromethyl)phenyl]-2H,8H-pyrazolo[3,4-b]indole-5-carbonyl}pyrrolidine], the concentration for half-maximal inhibition (IC50) lay in the range of 0.1 to 10 µM. As to `CC1CN(CCNC(=O)c2ccc3c(c2)c2cn(C)nc2n3-c2ccc(C(F)(F)F)cc2)CCO1` (centres unmarked) [Example B78, 2-methyl-N-[2-(2-methylmorpholin-4-yl)ethyl]-8-[4-(trifluoromethyl)phenyl]-2H,8H-pyrazolo[3,4-b]indole-5-carboxamide], the half-inhibitory concentration (IC50) is 0.1 to 10 µM. For the molecule `Cn1cc2c3cc(C(=O)NCC4(N5CCOCC5)CC4)ccc3n(-c3ccc(C(F)(F)F)cc3)c2n1` [Example B42, 2-methyl-N-{[1-(morpholin-4-yl)cyclopropyl]methyl}-8-[4-(trifluoromethyl)phenyl]-2H,8H-pyrazolo[3,4-b]indole-5-carboxamide], the 50% inhibitory concentration (IC50) was in the range of 0.1 to 10 µM.

In turn, `CC(NC(=O)c1ccc2c(c1)c1cn(C)nc1n2-c1ccc(C(F)(F)F)cc1)C(C)N1CCOCC1` (centres unmarked) [Example B61, 2-methyl-N-[3-(morpholin-4-yl)butan-2-yl]-8-[4-(trifluoromethyl)phenyl]-2H,8H-pyrazolo[3,4-b]indole-5-carboxamide] displayed an IC50 of 0.1 to 10 µM. `CC1CN(C(=O)c2ccc3c(c2)c2cn(C)nc2n3-c2ccc(C(F)(F)F)cc2)CC(CCO)O1` (centres unmarked) [Example B33, 2-(6-methyl-4-{2-methyl-8-[4-(trifluoromethyl)phenyl]-2H,8H-pyrazolo[3,4-b]indole-5-carbonyl}morpholin-2-yl)ethan-1-ol] gave an IC50 of 0.1 to 10 µM.

The molecule `CC(C)CC(NC(=O)c1ccc2c(c1)c1cn(C)nc1n2-c1ccc(C(F)(F)F)cc1)c1nc[nH]n1` (centres unmarked) [Example B24, 2-methyl-N-[3-methyl-1-(1H-1,2,4-triazol-3-yl)butyl]-8-[4-(trifluoromethyl)phenyl]-2H,8H-pyrazolo[3,4-b]indole-5-carboxamide] displayed a half-maximal inhibitory concentration (IC50) of 0.1 to 10 µM.

`Cn1cc2c(n1)c1cc(C(=O)O)ccc1n2-c1ccc(C(F)(F)F)cc1` [Example 4, 2-methyl-4-[4-(trifluoromethyl)phenyl]-2H,4H-pyrazolo[4,3-b]indole-7-carboxylic acid]: the concentration for half-maximal inhibition (IC50) was in the range of 0.1 to 10 µM. As to `Cn1cc2c3cc(C(=O)NC4CCCc5[nH]ccc54)ccc3n(-c3ccc(C(F)(F)F)cc3)c2n1` (centres unmarked) [Example B44, 2-methyl-N-(4,5,6,7-tetrahydro-1H-indol-4-yl)-8-[4-(trifluoromethyl)phenyl]-2H,8H-pyrazolo[3,4-b]indole-5-carboxamide], the half-inhibitory concentration (IC50) is 0.1 to 10 µM. For the molecule `Cn1cc2c3cc(C(=O)NCc4n[nH]c5c4CCCC5)ccc3n(-c3ccc(C(F)(F)F)cc3)c2n1` [Example B29, 2-methyl-N-[(4,5,6,7-tetrahydro-1H-indazol-3-yl)methyl]-8-[4-(trifluoromethyl)phenyl]-2H,8H-pyrazolo[3,4-b]indole-5-carboxamide], the concentration for half-maximal inhibition (IC50) is more than 10 µM. As for `Cn1cc2c3cc(C(=O)N4CCCC4Cn4cncn4)ccc3n(-c3ccc(C(F)(F)F)cc3)c2n1` (centres unmarked) [Example B54, 1-[(1-{2-methyl-8-[4-(trifluoromethyl)phenyl]-2H,8H-pyrazolo[3,4-b]indole-5-carbonyl}pyrrolidin-2-yl)methyl]-1H-1,2,4-triazole], the figure is more than 10 µM; as for `Cc1nnc2n1CCCC2NC(=O)c1ccc2c(c1)c1cn(C)nc1n2-c1ccc(C(F)(F)F)cc1` (centres unmarked) [Example B64, 2-methyl-N-(3-methyl-5H,6H,7H,8H-[1,2,4]triazolo[4,3-a]pyridin-8-yl}-8-[4-(trifluoromethyl)phenyl]-2H,8H-pyrazolo[3,4-b]indole-5-carboxamide], more than 10 µM. Turning to `Cn1cc2c3cc(C(=O)NC4CCc5cn[nH]c5C4)ccc3n(-c3ccc(C(F)(F)F)cc3)c2n1` (centres unmarked) [Example B25, 2-methyl-N-(4,5,6,7-tetrahydro-1H-indazol-6-yl)-8-[4-(trifluoromethyl)phenyl]-2H,8H-pyrazolo[3,4-b]indole-5-carboxamide], the half-inhibitory concentration (IC50) is 0.1 to 10 µM.

Regarding `Cn1cc2c3cc(C(=O)NCCc4cn[nH]c4)ccc3n(-c3ccc(C(F)(F)F)cc3)c2n1` [B100^], the IC50 fell in the range of 0.001 to 0.01 µM. As for `Cn1cc2c3cc(C(=O)NC[C@@H]4C[C@H]4C4CCOCC4)ccc3n(-c3ccc(C(F)(F)F)cc3)c2n1` [B116^], the figure is more than 10 µM.
